According to ChEMBL document CHEMBL2203203, “Structure-activity relationships of 2-arylamido-5,7-dihydro-4H-thieno[2,3-c]pyran-3-carboxamide derivatives as cannabinoid receptor agonists and their analgesic action” (Bioorg Med Chem Lett, 2012):
pEC50: −log10 of the molar value.

What was measured:
Cannabinoid receptor 2 [1] = target: T1, Cannabinoid receptor 2 (Homo sapiens, UniProt P34972); assay: Agonist activity at human CB2 receptor after 4 hrs by luciferase reporter gene assay relative to control; format: functional
T1 sequence (P34972 whole entry): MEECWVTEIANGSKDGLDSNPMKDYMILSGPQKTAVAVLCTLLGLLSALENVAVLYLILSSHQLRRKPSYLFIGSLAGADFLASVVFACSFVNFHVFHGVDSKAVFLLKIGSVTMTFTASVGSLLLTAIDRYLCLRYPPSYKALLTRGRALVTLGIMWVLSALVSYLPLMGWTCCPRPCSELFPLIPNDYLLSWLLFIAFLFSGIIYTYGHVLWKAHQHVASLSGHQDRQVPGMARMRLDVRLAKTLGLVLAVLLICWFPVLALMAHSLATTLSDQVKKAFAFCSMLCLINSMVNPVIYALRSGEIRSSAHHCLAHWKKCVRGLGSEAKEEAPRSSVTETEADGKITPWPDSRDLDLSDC

Homo sapiens = species on record: Homo sapiens; assay: Selectivity ratio of EC50 for human CB1 receptor to EC50 for human CB2 receptor
Cannabinoid receptor 2 [2] = target: T1, Cannabinoid receptor 2; assay: Agonist activity at human CB2 receptor after 4 hrs by luciferase reporter gene assay; format: functional
Cannabinoid receptor 1 [3] = target: T2, Cannabinoid receptor 1 (Homo sapiens, UniProt P21554); assay: Agonist activity at human CB1 receptor after 4 hrs by luciferase reporter gene assay; format: functional
T2 sequence (P21554 whole entry): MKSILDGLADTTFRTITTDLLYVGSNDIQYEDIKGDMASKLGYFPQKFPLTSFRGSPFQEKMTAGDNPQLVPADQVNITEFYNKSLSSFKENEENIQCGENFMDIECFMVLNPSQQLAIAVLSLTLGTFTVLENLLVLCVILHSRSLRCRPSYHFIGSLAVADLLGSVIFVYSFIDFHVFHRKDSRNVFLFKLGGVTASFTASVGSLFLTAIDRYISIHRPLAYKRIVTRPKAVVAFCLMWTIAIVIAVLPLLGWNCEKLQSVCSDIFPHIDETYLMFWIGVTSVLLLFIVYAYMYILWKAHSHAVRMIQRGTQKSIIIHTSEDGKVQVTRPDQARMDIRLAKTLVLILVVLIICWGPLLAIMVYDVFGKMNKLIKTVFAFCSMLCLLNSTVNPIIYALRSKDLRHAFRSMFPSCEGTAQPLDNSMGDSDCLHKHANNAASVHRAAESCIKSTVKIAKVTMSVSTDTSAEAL

Cannabinoid receptor 1 [4] = target: T2, Cannabinoid receptor 1; assay: Agonist activity at human CB1 receptor after 4 hrs by luciferase reporter gene assay relative to control; format: functional

Structure (SMILES)	Efficacy (Cannabinoid receptor 2 [1])	Ratio EC50 (Homo sapiens)	pEC50 (Cannabinoid receptor 2 [2])	pEC50 (Cannabinoid receptor 1 [3])	Efficacy (Cannabinoid receptor 1 [4])
CC(C)(C)C(=O)c1c(NC(=O)c2ccccc2C(F)(F)F)sc2c1CCOC2	88%	> 11	6.05	< 5.00	
O=C(Nc1sc2c(c1C(=O)N1CCC(F)(F)CC1)CCOC2)c1ccccc1C(F)(F)F	99%	57	8.85	7.10	90%
CC(C)(C)C(=O)c1c(NC(=O)c2ccccc2OC(F)(F)F)sc2c1CCOC2	102%	> 11	6.03	< 5.00	
COCCNC(=O)c1c(NC(=O)C2CCCC2)sc2c1CCOC2	84%	> 32	6.50	< 5.00	
COCC(C)(C)NC(=O)c1c(NC(=O)c2c(F)cccc2C(F)(F)F)sc2c1CCOC2	94%	> 135	7.13	< 5.00	
CC(C)c1ccccc1C(=O)Nc1sc2c(c1C(=O)N1CCOCC1)CCOC2	101%	42	7.46	5.82	105%
COCC(C)(C)NC(=O)c1c(NC(=O)c2ccccc2C(F)(F)F)sc2c1CCOC2	93%	> 243	7.39	< 5.00	
COCCNC(=O)c1c(NC(=O)c2ccccc2OC(F)(F)F)sc2c1CCOC2	100%	> 104	7.02	< 5.00	
Cc1ccccc1C(=O)Nc1sc2c(c1C(=O)N1CCOCC1)CCOC2	105%	12	6.19	5.13	97%
CC(C)(C)CC(=O)Nc1sc2c(c1C(=O)N1CCC(F)(F)CC1)CCCC2	82%	24	8.33	6.95	86%
CC1OCc2sc(NC(=O)CC(C)(C)C)c(C(=O)N3CCCCC3)c21 (stereo not drawn)	91%	42	7.40	5.78	88%
O=C(CN1CCCC1)Nc1sc2c(c1C(=O)N1CC(F)(F)C1)CCCC2	89%	> 25	6.40	< 5.00	
COC1CN(C(=O)c2c(NC(=O)c3ccccc3OC(F)(F)F)sc3c2CCOC3)C1	100%	37	7.42	5.85	45%
O=C(Nc1sc2c(c1C(=O)N1CCOCC1)CCOC2)c1c(Cl)cccc1Cl	76%	7	6.16	5.33	78%
O=C(Nc1sc2c(c1C(=O)N1CCCCC1)CCOC2)c1c(F)cccc1C(F)(F)F	103%	71	7.85	6.00	94%
O=C(Nc1sc2c(c1C(=O)NCC1CC1)CCOC2)c1c(F)cccc1C(F)(F)F	112%	74	7.96	6.09	90%
O=C(Nc1sc2c(c1C(=O)N1CCC(F)(F)CC1)CCOC2)c1ccccc1OC(F)(F)F	96%	38	8.48	6.90	79%
COCCNC(=O)c1c(NC(=O)C2CCC2)sc2c1CCCC2	101%	> 49	6.70	< 5.00	
O=C(Nc1sc2c(c1C(=O)N1CCOCC1)CCOC2)c1ccccc1Cl	112%	14	6.64	5.49	85%
COCCNC(=O)c1c(NC(=O)CN2CCCCC2)sc2c1CCCC2	98%	> 65	6.82	< 5.00	
COCCNC(=O)c1c(NC(=O)C2CCCC2)sc2c1CCCC2	81%	113	7.15	5.10	61%
O=C(Nc1sc2c(c1C(=O)N1CCOCC1)CCOC2)c1cccc(OC(F)(F)F)c1	77%	> 10	6.13	< 5.00	
COC1CN(C(=O)c2c(NC(=O)c3c(F)cccc3C(F)(F)F)sc3c2CCOC3)C1	100%	275	7.62	5.18	55%
COCCNC(=O)c1c(NC(=O)c2ccccc2OC(F)(F)F)sc2c1CCC(F)(F)C2	96%	> 145	7.20	< 5.00	
COc1ccccc1C(=O)Nc1sc2c(c1C(=O)N1CCOCC1)CCOC2			< 5.00	< 5.00	
COCCNC(=O)c1c(NC(=O)c2ccccc2Cl)sc2c1CCC(F)(F)C2	105%	21	7.34	6.02	97%
O=C(Nc1sc2c(c1C(=O)N1CCOCC1)CCOC2)c1ccccc1-c1ccccc1	63%		5.10	< 5.00	

Structure (SMILES)	Efficacy (Cannabinoid receptor 2 [1])	Ratio EC50 (Homo sapiens)	pEC50 (Cannabinoid receptor 2 [2])	pEC50 (Cannabinoid receptor 1 [3])	Efficacy (Cannabinoid receptor 1 [4])
CC1OCc2sc(NC(=O)CC(C)(C)C)c(C(=O)N3CC(F)(F)C3)c21 (stereo not drawn)	105%	36	8.22	6.66	94%
COCCNC(=O)c1c(NC(=O)CC(C)(C)C)sc2c1C(C)(C)CC2	100%	62	8.23	6.43	98%
CC1(C)CCc2sc(NC(=O)c3ccccc3Cl)c(C(=O)NCC3CC3)c21	116%	30	9.26	7.80	86%
COCCNC(=O)c1c(NC(=O)c2ccccc2Cl)sc2c1CCC2	52%	> 72	6.86	< 5.00	
CC(C)(C)CC(=O)Nc1sc2c(c1C(=O)NCC1CC1)C(C)(C)CC2	101%	38	8.19	6.61	96%
O=C(CN1CCCCC1)Nc1sc2c(c1C(=O)N1CC(F)(F)C1)CCCC2	103%	> 178	7.25	< 5.00	
CC(C)(C)CC(=O)Nc1sc2c(c1C(=O)N1CCC(F)(F)CC1)C(C)(C)CC2	96%	> 77	6.89	< 5.00	
COCCNC(=O)c1c(NC(=O)CC(C)(C)C)sc2c1CCCC2	94%	84	7.64	5.72	90%
O=C(Nc1sc2c(c1C(=O)N1CC(F)(F)C1)CCC(F)(F)C2)c1ccccc1OC(F)(F)F	99%	8	7.74	6.86	93%
O=C(Nc1sc2c(c1C(=O)N1CCOCC1)CCOC2)c1ccc(Cl)cc1Cl	108%		5.03	< 5.00	
O=C(Nc1sc2c(c1C(=O)N1CCOCC1)CCOC2)c1cccc(Cl)c1	98%		5.85	< 5.00	
O=C(Nc1sc2c(c1C(=O)N1CCOCC1)CCOC2)c1c(F)cccc1C(F)(F)F	100%	48	7.02	5.34	56%
O=C(Nc1sc2c(c1C(=O)N1CCOCC1)CCOC2)c1ccc(Cl)cc1			< 5.00	< 5.00	
O=C(Nc1sc2c(c1C(=O)N1CCC(F)(F)CC1)CCOC2)c1c(F)cccc1C(F)(F)F	97%	71	8.44	6.60	94%
COCC(C)(C)NC(=O)c1c(NC(=O)c2ccccc2OC(F)(F)F)sc2c1CCOC2	81%	> 100	7.00	< 5.00	
COCCNC(=O)c1c(NC(=O)C2CCCN2C(=O)C2CC2)sc2c1CCCC2 (stereo not drawn)	88%	> 29	6.46	< 5.00	
O=C(CN1CCCCC1)Nc1sc2c(c1C(=O)N1CCC(F)(F)CC1)CCCC2	104%	126	7.59	5.49	100%
O=C(Nc1sc2c(c1C(=O)O)CCOC2)c1ccccc1Cl			< 5.00	< 5.00	
O=C(Nc1sc2c(c1C(=O)N1CCOCC1)CCOC2)c1ccccc1OC(F)F	96%	> 20	6.31	< 5.00	
O=C(Nc1sc2c(c1C(=O)NCC1CC1)CCC2)c1ccccc1Cl	76%	> 94	6.97	< 5.00	
COCCNC(=O)c1c(NC(=O)CC(C)(C)C)sc2c1CCOC2	101%	> 20	6.31	< 5.00	
CC(C)(C)CC(=O)Nc1sc2c(c1C(=O)N1CC(F)(F)C1)CCCC2	99%	63	8.27	6.47	91%
O=C(Nc1sc2c(c1C(=O)N1CC(F)(F)C1)CCC(F)(F)C2)c1ccccc1Cl	98%	2	7.31	7.09	95%
O=C(Nc1sc2c(c1C(=O)N1CCOCC1)CCOC2)c1ccccc1C(F)(F)F	102%	50	7.46	5.76	84%
O=C(CN1CCCC1)Nc1sc2c(c1C(=O)N1CCC(F)(F)CC1)CCCC2	87%	> 48	6.68	< 5.00	
O=C(Nc1sc2c(c1C(=O)N1CCOCC1)CCOC2)c1ccccc1OC(F)(F)F	106%	> 90	6.99	< 5.00	
COC1CN(C(=O)c2c(NC(=O)CN3CCCCC3)sc3c2CCCC3)C1	92%	> 45	6.66	< 5.00	
